From patent publication US10744134B2, “Pharmaceutical composition for cancer immunotherapy and/or immunological activation containing diamino heterocyclic carboxamide compound as active ingredient” (Astellas Pharma Inc., priority 2015, dated 2020)

What was measured:
CD4+ and CD8+ T cells = experiment: Immune activation: flow cytometry of CD4+ and CD8+ T cells in spleen and tumor of MC38 cancer-bearing mice (Example 2); type: in vivo, C57BL/6J mouse; conditions: 100 mg/kg qd oral for seven days
Description: (§1) Evaluation of Immune Activation of Compound a with Respect to Colon Carcinoma Cell Line MC38 Cancer-Bearing Model
(§2) MC38 subcutaneous cancer-bearing mice were prepared by subcutaneously transplanting MC38 cells on the back of C57BL/6J mouse (female, Charles river, Japan). After confirming the engraftment of the tumor, hemifumarate of the compound A, which is the test compound, was orally administered to seven mice at a dose of 100 mg/kg (in terms of free form) once a day for seven days. As a control, 0.5% of methylcellulose was also orally administered to seven mice at the same dose of 100 mg/kg once a day for seven days, which was the same administration as the group administered at a 100 mg/kg. After measuring the tumor volume change on the 4th and 7th days, spleens and tumors were collected from a total of six mice of three examples (control-1, control-2, and control-3) extracted from the control group and three examples extracted from the compound A administered groups (COMPOUND A 100 mg/kg qd-1, COMPOUND A 100 mg/kg qd-2, and COMPOUND A 100 mg/kg qd-3). Then, staining was performed with anti CD3 antibody (eBioscience), anti CD4 antibody (Biolegend), anti CD8 antibody (eBioscienec), anti CD45 antibody (Biolegend), and the number of positive cells of each antigen was measured using a flow cytometer (BD FACS Verse).

[1] = system: colon carcinoma cell line MC38; experiment: Tumor volume change in MC38 subcutaneous cancer-bearing mice (Example 2); type: in vivo, C57BL/6J mouse; conditions: hemifumarate, oral, 100 mg/kg (free form) once a day for seven days; individuals qd-2 and qd-3; measured on 4th and 7th days; FIG. 2
Description: as §1, §2

[2] = system: colon carcinoma cell line MC38; experiment: Anti-tumor evaluation (in vivo) in colon carcinoma cell line MC38 cancer-bearing model (Example 1); design: species or system C57BL/6J mice; conditions: hemifumarate of compound A, oral, vs control group, FIG. 1
Description: Evaluation of Anti-Tumor (In Vivo) of Compound a with Respect to Colon Carcinoma Cell Line MC38 Cancer-Bearing Model
The colon cancer cell line MC38 cells (National Cancer Institute) were cultured in Dulbecco's modified Eagle's minimum essential medium (DMEM) supplemented with 10% Fetal Bovine Serum (FBS). MC38 subcutaneous cancer-bearing mice were subsequently prepared by subcutaneously transplanting MC38 cells on the back of C57BL/6J mice (female, Charles river, Japan). After confirming the engraftment of the tumor, the change in the tumor volume of each of the group (COMPOUND A 30 mg/kg bid) in which hemifumarate of the compound A, which is a test compound, dissolved in 0.5% of methyl cellulose is orally administered at a dose of 30 mg/kg (in terms of free form) twice a day for 17 days, the group (COMPOUND A 60 mg/kg qd) in which hemifumarate of the compound A is orally administered at a dose of 60 mg/kg (in terms of free form) once a day for 17 days, and the control group in which the compound A is not administered, was measured at a frequency of twice a week.

malignant melanoma = conditions: first-line, malignant melanoma patients; cited from earlier work

In the case of `CCc1nc(C(N)=O)c(Nc2ccc(N3CCC(N4CCN(C)CC4)CC3)c(OC)c2)nc1NC1CCOCC1` [compound A, 6-ethyl-3-({3-methoxy-4-[4-(4-methylpiperazin-1-yl)piperidin-1-yl]phenyl}amino)-5-(tetrahydro-2H-pyran-4-ylamino)pyrazine-2-carboxamide], the “proportion of the number of CD8+ cells in CD45+ and CD3+ cells in a tumor” value (CD4+ and CD8+ T cells; individuals qd-2 and qd-3 in which tumor growth was suppressed, FIG. 5) is reported as “the increase of the number of CD8+ cells was observed”, the “proportion of the number of CD4+ cells in CD45+ and CD3+ cells in spleen” value (CD4+ and CD8+ T cells; three mice vs three controls, FIG. 3) is reported as “the increase in the number of CD4+ cells and CD8+ cells in spleen was observed” and the “proportion of the number of CD8+ cells in CD45+ and CD3+ cells in spleen” value (CD4+ and CD8+ T cells; three mice vs three controls, FIG. 4) is reported as “the increase in the number of CD4+ cells and CD8+ cells in spleen was observed”. The tumor volume [1] was “the increase in the tumor volume was hardly observed”, the tumor volume ([2]; 30 mg/kg (free form) twice a day for 17 days) was “strong effect of suppressing the increase in the tumor volume” and the tumor volume ([2]; 60 mg/kg (free form) once a day for 17 days) was “strong effect of suppressing the increase in the tumor volume”.

In the case of “nivolumab: anti-PD-1 antibody marketed as a therapeutic agent for malignant melanoma and non-small cell lung cancer”, the “overall survival extended, share of the nivolumab group” value (malignant melanoma) is listed as 72.9%.
